Measurements: ChEMBL document CHEMBL4400570, “Designing of acyl sulphonamide based quinoxalinones as multifunctional aldose reductase inhibitors” (Bioorg Med Chem, 2019)
Values belong to the compound of their own block, whether it stands above or below them.

What was measured:
[1] = target: Aldo-keto reductase family 1 member B1 (Rattus norvegicus, UniProt P07943); test: Inhibition of Wistar rat lens ALR2 using L-glyceraldehyde as substrate preincubated for 10 mins followed by substrate addition and measured for 4 mins by spectrophotometric method
[2] = target: Aldo-keto reductase family 1 member A1 (Rattus norvegicus, UniProt P51635); test: Inhibition of Wistar rat kidney ALR1 using sodium D-glucuronate as substrate preincubated for 10 mins followed by substrate addition and measured for 4 mins by spectrophotometric method
Aldo-keto reductase family 1 member A1, sequence (P51635 whole entry, looked up): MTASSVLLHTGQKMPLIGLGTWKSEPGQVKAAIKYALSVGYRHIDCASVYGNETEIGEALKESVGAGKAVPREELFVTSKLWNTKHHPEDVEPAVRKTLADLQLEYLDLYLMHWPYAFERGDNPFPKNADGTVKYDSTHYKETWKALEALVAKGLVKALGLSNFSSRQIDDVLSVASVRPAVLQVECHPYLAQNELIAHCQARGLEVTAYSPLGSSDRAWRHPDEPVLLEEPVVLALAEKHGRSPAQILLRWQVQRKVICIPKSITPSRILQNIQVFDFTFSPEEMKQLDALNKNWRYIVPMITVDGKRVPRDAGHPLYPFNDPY

Rattus norvegicus = species: Rattus norvegicus; test: Selectivity index, ratio of IC50 for Wistar rat kidney ALR1 to IC50 for Wistar rat lens ALR2
[3] = Octanol-buffer partition coefficient, log D of the compound at pH 7.4 measured after 24 hrs by HPLC based shake flask assay; type: physicochemical
[4] = Antioxidant activity assessed as DPPH radical scavenging activity at 10 uM relative to control; type: functional
[5] = Antioxidant activity assessed as DPPH radical scavenging activity at 5 uM relative to control; type: functional
[6] = Antioxidant activity assessed as DPPH radical scavenging activity at 1 uM relative to control; type: functional
Brain [7] = test: Antioxidant activity in rat brain homogenate assessed as inhibition of FeCl2/ascorbic acid-induced lipid peroxidation by measuring reduction in TBARS level at 100 uM measured after 30 mins by spectrophotometric method relative to control; type: functional, tissue-based
Brain [8] = test: Antioxidant activity in rat brain homogenate assessed as inhibition of FeCl2/ascorbic acid-induced lipid peroxidation by measuring reduction in TBARS level at 50 uM measured after 30 mins by spectrophotometric method relative to control; type: functional, tissue-based
[9] = Antioxidant activity assessed as DPPH radical scavenging activity at 100 uM relative to control; type: functional
[10] = Antioxidant activity assessed as DPPH radical scavenging activity at 50 uM relative to control; type: functional
[11] = target: Aldo-keto reductase family 1 member B1 (Rattus norvegicus) (UniProt P07943); test: Inhibition of Wistar rat lens ALR2 at 100 uM using L-glyceraldehyde as substrate preincubated for 10 mins followed by substrate addition and measured for 4 mins by spectrophotometric method relative to control
[12] = target: Aldo-keto reductase family 1 member B1 (Rattus norvegicus) (UniProt P07943); test: Inhibition of Wistar rat lens ALR2 at 10 uM using L-glyceraldehyde as substrate preincubated for 10 mins followed by substrate addition and measured for 4 mins by spectrophotometric method relative to control

IC50 [1]: 15.9 µM
IC50 [2]: 42.5 µM
Ratio IC50 (Rattus norvegicus): 2.67
Compound: COc1ccc(/C=C/c2nc3ccccc3n(CC(=O)NS(=O)(=O)C(F)(F)F)c2=O)cc1OC

IC50 [1]: 0.1 µM
IC50 [2]: 9.16 µM
Ratio IC50 (Rattus norvegicus): 91.6
logD at 24 h [3]: -1.08
Compound: O=C(Cn1c(=O)c(/C=C/c2ccc(O)c(O)c2)nc2ccccc21)NS(=O)(=O)C(F)(F)F
Activity [4]: 82.1%
Activity [5]: 51.9%
Activity [6]: 11%
inhibition (Brain [7]): 73.5%
inhibition (Brain [8]): 39%

logD at 24 h [3]: 0.05
Compound: O=C(O)Cn1c(=O)c(/C=C/c2ccccc2)nc2ccccc21

IC50 [1]: 23.6 µM
Compound: O=C(Cn1c(=O)c(-c2ccc(O)cc2)nc2ccccc21)NS(=O)(=O)C(F)(F)F

IC50 [1]: 55.1 µM
Compound: COc1ccc(Oc2nc3ccccc3n(CC(=O)NS(=O)(=O)C(F)(F)F)c2=O)cc1

IC50 [1]: 75.2 µM
Compound: O=C(Cn1c(=O)c(-c2ccccc2)nc2ccccc21)NS(=O)(=O)C(F)(F)F

logD at 24 h [3]: -1.63
Compound: O=C(O)Cn1c(=O)c(/C=C/c2ccc(O)cc2)nc2ccccc21

IC50 [1]: 3.27 µM
IC50 [2]: 23.9 µM
Ratio IC50 (Rattus norvegicus): 7.3
logD at 24 h [3]: 1.05
Compound: COc1cc(/C=C/c2nc3ccccc3n(CC(=O)NS(=O)(=O)C(F)(F)F)c2=O)ccc1O
Activity [9]: 89.8%
Activity [10]: 81.9%
Activity [4]: 52.2%
Activity [5]: 27.7%
inhibition (Brain [7]): 61.9%

IC50 [1]: 6.38 µM
IC50 [2]: 29.9 µM
Ratio IC50 (Rattus norvegicus): 4.68
logD at 24 h [3]: 2.88
Compound: O=C(Cn1c(=O)c(/C=C/c2ccccc2)nc2ccccc21)NS(=O)(=O)C(F)(F)F
Activity [9]: 58.5%
Activity [10]: 35.1%
Activity [4]: 6.4%
inhibition (Brain [7]): 20.6%

IC50 [1]: 40.6 µM
Compound: O=C(Cn1c(=O)c(Oc2ccc(Cl)cc2)nc2ccccc21)NS(=O)(=O)C(F)(F)F

IC50 [1]: 14.3 µM
IC50 [2]: 29.2 µM
Ratio IC50 (Rattus norvegicus): 2.05
Compound: O=C(Cn1c(=O)c(/C=C/c2ccc(F)cc2)nc2ccccc21)NS(=O)(=O)C(F)(F)F

IC50 [1]: 35.2 µM
Compound: CS(=O)(=O)NC(=O)Cn1c(=O)c(/C=C/c2ccccc2)nc2ccccc21

IC50 [1]: 54 µM
Compound: O=C(Cn1c(=O)c(Oc2ccccc2)nc2ccccc21)NS(=O)(=O)C(F)(F)F

logD at 24 h [3]: -2.59
Compound: O=C(O)Cn1c(=O)c(/C=C/c2ccc(O)c(O)c2)nc2ccccc21
Activity [9]: 95.4%
Activity [10]: 89.2%
Activity [4]: 46%
Activity [5]: 21.8%
inhibition (Brain [7]): 59.5%

inhibition [11]: 41.7%
Compound: CS(=O)(=O)NC(=O)Cn1c(=O)c(Oc2ccccc2)nc2ccccc21

IC50 [1]: 71.9 µM
Compound: O=C(Cn1c(=O)c(-c2ccc(F)cc2)nc2ccccc21)NS(=O)(=O)C(F)(F)F

IC50 [1]: 0.627 µM
IC50 [2]: 27.7 µM
Ratio IC50 (Rattus norvegicus): 44.2
logD at 24 h [3]: 1.73
Compound: O=C(Cn1c(=O)c(/C=C/c2ccc(O)cc2)nc2ccccc21)NS(=O)(=O)C(F)(F)F
Activity [9]: 56.2%
Activity [10]: 38.9%
Activity [4]: 13.2%
inhibition (Brain [7]): 38.6%

IC50 [1]: 38.7 µM
Compound: COc1ccc(-c2nc3ccccc3n(CC(=O)NS(=O)(=O)C(F)(F)F)c2=O)cc1OC

IC50 [1]: 10.1 µM
IC50 [2]: 73.6 µM
Ratio IC50 (Rattus norvegicus): 7.26
Compound: O=C(Cn1c(=O)c(Oc2ccc(O)cc2)nc2ccccc21)NS(=O)(=O)C(F)(F)F
Activity [9]: 8.1%
inhibition (Brain [7]): 12.3%

inhibition [12]: 24.6%
Compound: NC(=O)Cn1c(=O)c(/C=C/c2ccccc2)nc2ccccc21

inhibition [11]: 35.9%
Compound: CS(=O)(=O)NC(=O)Cn1c(=O)c(-c2ccccc2)nc2ccccc21

IC50 [1]: 74.7 µM
Compound: O=C(Cn1c(=O)c(Oc2ccc(Br)cc2)nc2ccccc21)NS(=O)(=O)C(F)(F)F

IC50 [1]: 38.1 µM
Compound: O=C(Cn1c(=O)c(Oc2ccc(F)cc2)nc2ccccc21)NS(=O)(=O)C(F)(F)F

inhibition [12]: 26.5%
Compound: NC(=O)Cn1c(=O)c(/C=C/c2ccc(F)cc2)nc2ccccc21

Compound: Cc1c(C)c2c(c(C)c1O)CCC(C)(C(=O)O)O2 (stereo not given)
Activity [9]: 96.5%
Activity [10]: 94.7%
Activity [4]: 77.9%
Activity [5]: 39.3%
Activity [6]: 8.2%
inhibition (Brain [7]): 74.1%
inhibition (Brain [8]): 36.6%

logD at 24 h [3]: -2.66
Compound: COc1cc(/C=C/c2nc3ccccc3n(CC(=O)O)c2=O)ccc1O
Activity [9]: 94%
Activity [10]: 73.6%
Activity [4]: 44.4%
Activity [5]: 21.1%
inhibition (Brain [7]): 56.1%

IC50 [1]: 34 µM
Compound: O=C(Cn1c(=O)c(-c2ccc(C(F)(F)F)cc2)nc2ccccc21)NS(=O)(=O)C(F)(F)F

IC50 [1]: 4.64 µM
IC50 [2]: 57.9 µM
Ratio IC50 (Rattus norvegicus): 12.5
Compound: O=C(Cn1c(=O)c(-c2ccc(O)c(O)c2)nc2ccccc21)NS(=O)(=O)C(F)(F)F
Activity [9]: 92.3%
Activity [10]: 89.6%
Activity [4]: 81.4%
Activity [5]: 46%
Activity [6]: 6.8%
inhibition (Brain [7]): 58.7%
